Experimental data as given in patent US20190142893A1, “Electron, Radical, or Reactive Oxygen Species-Scavenging Agent Based Therapy of Inborn Errors of Fatty Acid Oxidation and Oxidative Phosphorylation” (University of Pittsburgh- Of the Commonwealth System of …, priority 2016, published 2019).

Columns and labels:
Assay type in all cases: cell-based, human
[1] = test system: VLCAD deficient fibroblasts (Fb671, Fb773, Fb834, Fb833); assay: Superoxide production (MitoSOX Red, flow cytometry) in VLCAD deficient fibroblasts; conditions: patient cells, media without glucose 48 h, after 24 h of treatment; FIGS. 27 and 28
Method: ROS generation: control and patient fibroblasts were cultivated in normal media or without glucose for 48 hours, then incubated for 15 min with MitoSox Red (Life Technologies). Fluorescence was evaluated by flow cytometry.
(§1) Cells were grown in Dulbecco's Modified Eagle Medium (DMEM), Corning Life Sciences, Manassas, Va., containing high glucose levels or in DMEM devoid of glucose for 48-72 h. Both media were supplemented with glutamine, 10% fetal bovine serum, 4 mM glutamine, 100 IU penicillin and 100 μg/mL streptomycin, Corning Life Sciences, Manassas, Va.
(§2) Cells were treated with different compounds in different concentrations 24 or 48 h before the assays. The compounds used were N-acetylcysteine (1 mM), bezafibrate (600 μM), resveratrol (75 μM), MiloQ (200 nM), trolox (1 mM) and JP4-039 (40 and 200 nM).
(§3) Cell suspension containing 1×10^5 cells per mL were incubated for 25 min at 37° C. with 150 nM Mitotracker Green, Invitrogen, Grand Island, N.Y., for mitochondrial mass evaluation or for 15 min at 37° C. with 5 μM MitoSOX Red, Invitrogen, Grand Island, N.Y., for superoxide production measurement. After incubation, 10,000 cells samples were analyzed in a Becton Dickinson FACSAria II flow cytometer, BD Biosciences, San Jose, Calif.

[2] = test system: VLCAD deficient fibroblasts (Fb671, Fb773, Fb834); assay: Oxygen consumption rate (Seahorse analyzer) in VLCAD deficient fibroblasts; conditions: FB671, media without glucose, FIG. 25
Method: Oxygen consumption assay: Fibroblasts controls and from patients with VLCAD deficiency were cultivated in normal media or in the absence of glucose for 72 hours. The oxygen consumption was monitored by a Seahorse XFe96 Extracellular Flux Analyzer (Seahorse Bioscience, Billerica, Mass.).
as §1, §2
Oxygen consumption rate (OCR) was measured with a Seahorse XF^c96 Extracellular Flux Analyzer (Seahorse Bioscience, Billerica, Mass.). The apparatus contains a fluorophore that is sensitive to changes in oxygen concentration, which enables it to accurately measure the rate at which cytochrome c oxidase (complex IV) reduces one O2 molecule to two H2O molecules during OXPHOS. Cells were seeded in 96-well Seahorse tissue culture microplates in growth media at a density of 80,000 cells per well. To ensure equal cell numbers, cells were seeded in cell culture plates pre-coated with Cell-Tak (BD Biosciences, San Jose, Calif.). All cell lines were measured with four to six wells per cell line. Then, the entire experiments were repeated. Before running the Seahorse assay, cells were incubated for 1 h without CO2 in unbuffered DMEM. Initial OCR was measured to establish a baseline (basal respiration). Reserve capacity was also determined after the injection of 300 nM carbonyl cyanide 4-(trifluoromethoxy) phenylhydrazone (FCCP), Seahorse XF Cell Mito Stress Test Kit, Santa Clara, Calif. Data were reported in pmol/min for OCR.

[3] = test system: FAO deficient fibroblasts; assay: Superoxide production (MitoSOX dye) in FAO deficient fibroblasts; conditions: FAO deficient fibroblasts cultured in absence of glucose 48-72 h
Method: FAO deficient fibroblasts were cultured in the absence of glucose for 48-72 h to shift to fatty acids as the energy source. Oxygen consumption rate (OCR) was monitored by a Seahorse XF analyzer (See FIG. 23). Mitochondrial mass was examined by MitoTracker Green and ROS generation by MitoSOX dye. Protein immunocontent was evaluated by western blotting. […] Testing of XJB-5-131 was conducted essentially as described for JP4-039.
as §3

SMILES	Superoxide generation (increased levels in VLCAD deficient cells) [1]	Reserved capacity (oxygen consumption) ([2]; 40 nM)	Basal respiration (oxygen consumption) ([2]; 200 nM)	Reserved capacity (oxygen consumption) ([2]; 200 nM)	Increased superoxide production [3]
COC1=C(OC)C(=O)C(CCCCCCCCCC[P+](c2ccccc2)(c2ccccc2)c2ccccc2)=C(C)C1=O [MitoQ]	JP4-039 was the only antioxidant able to decrease superoxide generation				
Oc1ccc(C=Cc2cc(O)cc(O)c2)cc1 [resveratrol]	JP4-039 was the only antioxidant able to decrease superoxide generation				
CC(=O)N[C@@H](CS)C(=O)O [N-acetylcysteine]	JP4-039 was the only antioxidant able to decrease superoxide generation				
CC(C)C[C@@H](/C=C/[C@H](Cc1ccccc1)C(=O)N1CCC[C@H]1C(=O)N[C@H](C(=O)N[C@@H](CCCNC(=O)OCc1ccccc1)C(=O)NC1CC(C)(C)N([O])C(C)(C)C1)C(C)C)NC(=O)OC(C)(C)C [XJB-5-131]		improves	improved	improves	prevented
